# Results taken from patent publication US10328114B2, “Lung injury repair compositions and methods” (University of Iowa Research Foundation, priority 2015, dated 2019).
# Entries after “also recorded” stand apart in the source; their conditions may differ. *: point of attachment. Myristoyl = CCCCCCCCCCCCCC(=O)*
# How the values were obtained:
# PKCζ = biological target: T1, PKCζ (Mus musculus, UniProt Q02956); test: PKCζ activation (p-PKCζ) in lungs, bleomycin induced ALI mouse model, Western blot and immunofluorescence; format: in vivo; details: for activation of PKC-ζ in vivo: lungs harvested at 1, 3 and 6 weeks, Western blot and immunofluorescence
# T1 construct: from tissue; host or cells: lungs of C57BL/6 mice (lung homogenates and frozen lung sections)
# T1 sequence (Q02956 1-592): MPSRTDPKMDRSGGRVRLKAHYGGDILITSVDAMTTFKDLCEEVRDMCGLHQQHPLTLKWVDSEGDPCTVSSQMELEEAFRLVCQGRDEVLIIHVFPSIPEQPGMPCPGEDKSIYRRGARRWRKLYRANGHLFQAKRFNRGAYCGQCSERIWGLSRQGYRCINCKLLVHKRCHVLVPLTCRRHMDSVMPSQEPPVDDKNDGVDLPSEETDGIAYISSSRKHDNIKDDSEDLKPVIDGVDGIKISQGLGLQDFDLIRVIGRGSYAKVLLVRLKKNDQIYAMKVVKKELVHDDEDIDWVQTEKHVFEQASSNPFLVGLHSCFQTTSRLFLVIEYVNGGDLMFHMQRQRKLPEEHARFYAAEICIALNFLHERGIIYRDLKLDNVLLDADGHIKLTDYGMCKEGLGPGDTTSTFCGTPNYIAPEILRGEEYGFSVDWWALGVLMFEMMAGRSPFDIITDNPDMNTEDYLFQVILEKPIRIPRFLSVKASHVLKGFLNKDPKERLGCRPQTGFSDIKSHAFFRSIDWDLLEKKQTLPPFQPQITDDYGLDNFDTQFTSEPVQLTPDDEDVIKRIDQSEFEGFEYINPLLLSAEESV
# Experimental: Mice were randomly divided into four groups: (i) control: PBS plus DMSO (1 μl/mouse) (ii) PKC-ζ pseudosubstrate inhibitor (PKC-ζ ps) (1 μg/mouse suspended in DMSO), a pharmacological inhibitor that competes for the pseudosubstrate domain which give specificity to several PKCζ isoforms (Hofmann, J. (1997). “The potential for isoenzyme-selective modulation of protein kinase C.” FASEB J 11(8): 649-669); (iii) bleomycin: bleomycin suspended in PBS (4 U/kg); and (iv) Bleomycin+PKCζi: bleomycin (4 U/kg) plus (1 μg/mouse) PKCζi. The above conditions were administered intratracheally (50 μL) to 6-8 wk-old mice after 2-5 min of anesthesia with 4% isoflurane via a precision Fortec vaporizer (Cyprane, Keighley, UK). Treatment with DMSO or PKCζi was administered every 72 hours and followed for up to 6 weeks. At 1, 3, and 6 weeks mice were euthanized and lungs harvested.
# (§1) Animal protocols were approved by the Institutional Animal Care and Use Committee at the University of Iowa. C57BL/6 mice (Jackson Laboratories, Bar Harbor, Me.) were anesthetized followed by intratracheal instillation of: (A) Control (Ctrl): 1 μl of DMSO (Sigma, St. Louis, Mo.) plus 49 μl of PBS; (B) Bleomycin (Bleo): 1 μl of DMSO plus 49 μl of bleomycin (APP pharmaceuticals, LLC Schaumburg, Ill.) dissolved in PBS (4 U/kg); (C) Bleomycin/PKCζi (Bleo/PKCζi): 1 μg of PKCζi (Calbiochem EMD Biosciences, San Diego, Calif.) solubilized in 1 μl of DMSO plus 49 μl of bleomycin (4 U/Kg) dissolved in PBS (Calbiochem EMD Biosciences, San Diego, Calif.). After this treatment, all mice were instilled (50 μl) every 72 hours with 1 μl of DMSO plus 49 μl of PBS in the Ctrl and Bleo group or with 1 μg of PKCζi dissolved in 1 μl of DMSO plus 49 μl of PBS in the Bleo/PKCζi group for the duration of the experiment. Mice were treated for up to 6 weeks (FIG. 1A). All conditions had between 4 to 6 animals.
# Western blot analysis was performed using Phospho-(Ser) PKCζ substrate rabbit monoclonal antibody (Cell Signaling, Beverly, Mass.), total PKCζ rabbit polyclonal antibody (Santa Cruz Biotechnology, Dallas, Tex.) and mature surfactant protein C (SPC) rabbit polyclonal antibody (Seven Hill Bioreagents, Cincinnati, Ohio).
# After dissection, immunofluorescence labeling was performed on frozen mouse lung tissue sections with polyclonal anti p-PKCζ (Santa Cruz Biotechnology, Dallas, Tex.) or monoclonal β4 antibody (Clone 346-11a, BD Biosciences, San Jose, Calif.) (23). In addition, Terminal deoxynucleotidyltransferase dUTP nick end labeling (TUNEL) staining was performed on week 1 mouse lung tissue sections (24).
# [1] = test system: bleomycin induced ALI mouse model; test: BALF total protein concentration (alveolar-capillary permeability), Bradford assay; format: in vivo; details: week 1 post injury
# Experimental: as §1
# Bronchoalveolar lavage was performed as previously described (18). Total cell count was examined by hemocytometer and the percent of neutrophils cells in the bronchoalveolar lavage fluid (BALF) by cytospin slides stained with Wright's-Giemsa. Total protein concentration was measured by Bradford assay (Bio-Rad, Hercules, Calif.).
# [2] = test system: bleomycin induced ALI mouse model; test: In vivo lung μCT scan in bleomycin ALI model; details: week 6
# Experimental: as §1
# High resolution scanning coupled to a computer controlled respirator to reduce ventilation motion artifacts was performed as described previously (27).
# mouse DLEP α6β4^+ cells = test: Isolated DLEP α6β4+ cell colony assay (Example 3); format: cell-based; details: PKCζi 10 μM, 2 weeks, 20% BALF from week 1 bleomycin injured mice
# Experimental: Isolated mouse DLEP α6β4^+ cells in the presence of 20% of BALF from week 1 mice injured with bleomycin were treated with PKCζi (10 μM) for 2 weeks. At week 3 the colonies derived from cre-GFP (lox-tm-TR/GFP) for surfactant protein C (SPC)/Tomato red with hydroxy-tamoxifen were exposed in order to trace the differentiation of β4^+ colonies into SPC^+ cells.
substance,measurement,setting,value
N-Myristoyl-Ser-Ile-Tyr-Arg-Arg-Gly-Ala-Arg-Arg-Trp-Arg-Lys-Leu-OH (Myristoyl-SIYRRGARRWRKL-OH; SMILES CCCCCCCCCCCCCC(=O)N[C@@H](CO)C(=O)N[C@H](C(=O)N[C@@H](Cc1ccc(O)cc1)C(=O)N[C@@H](CCCNC(=N)N)C(=O)N[C@@H](CCCNC(=N)N)C(=O)NCC(=O)N[C@@H](C)C(=O)N[C@@H](CCCNC(=N)N)C(=O)N[C@@H](CCCNC(=N)N)C(=O)N[C@@H](Cc1c[nH]c2ccccc12)C(=O)N[C@@H](CCCNC(=N)N)C(=O)N[C@@H](CCCCN)C(=O)N[C@@H](CC(C)C)C(=O)O)[C@@H](C)CC) [PKCζi],activation of PKC-ζ in vivo,PKCζ,prevents activation of PKCζ in vivo
same,activation of PKC-ζ in vivo,PKCζ; listed as PKC-ζi,prevented the activation of PKC-ζ
same,"p-PKCζ / total PKCζ, Western blot densitometry of lung homogenates","PKCζ; week 1, PKCζi 1 μg intratracheal every 72 hours, vs Bleo group",prevented bleomycin induced increased ratio p-PKC/total PKCζ; also recorded: decreased p-PKCζ at week 1 compared to Bleo group
same,p-PKCζ immunostaining intensity in lung,"PKCζ; week 3 and 6, vs bleomycin group",did not have any increase in p-PKCζ at week 3; also recorded: decreased intensity in the Bleo/PKCζi group compared to bleomycin group at week 3 and 6
same,BALF protein concentration,[1],prevented the increase in mice BALF protein concentration compared to bleomycin group; also recorded: prevents increase in BALF protein concentration in bleomycin treated mice
same,BALF protein concentration,[1]; listed as PKC-ζ inhibitor,prevents increased protein content in BAL in bleomycin induced ALI
same,lung injury on μCT,[2],confirmed lung injury resolution; also recorded: complete resolution in the PKCζi group at week 6
same,lung injury on μCT,[2]; listed as PKC-ζi,confirmed lung injury resolution
same,number of α6β4+ colonies,mouse DLEP α6β4^+ cells,increased the number of α6β4^+ colonies compared to control; also recorded: promotes proliferation DLEP α6β4^+ cells in vitro
